Experimental findings from US10660877B2 (BRISTOL-MYERS SQUIBB COMPANY, priority 2016, dated 2020) are described below.

Broadly, the IC50 is the concentration at which inhibition is half-maximal.

In test [1] the target is human TLR7 (Homo sapiens (Human), UniProt Q9NYK1). As to the kind of experiment: TLR7 inhibition reporter assay (HEK-Blue cells, SEAP reporter, gardiquimod stimulation). It counts as cell-based. In general terms: Reporter assays use an easily measured gene product as a stand-in for the process of interest.
Test [2] concerns the target human TLR8 (Homo sapiens (Human), UniProt Q9NR97). As to the kind of experiment: TLR8 inhibition reporter assay (HEK-Blue cells, SEAP reporter, R848 stimulation).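 Note: compounds tested from 0.05 nM to 50 µM, 22 h at 37 °C, SEAP measured with HEK-Blue Detection, inhibition relative to agonist plus DMSO versus a known inhibitor.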
Test [3] has as its target human TLR9 (Homo sapiens (Human), UniProt Q9NR96). The test is described as follows: TLR9 inhibition reporter assay (HEK-Blue cells, SEAP reporter, ODN2006 stimulation).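 Note: compounds tested over 0.05 nM to 50 µM, 22 h incubation, inhibition taken as SEAP signal drop from agonist plus DMSO wells toward a known inhibitor control.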
Setting [4] is: HEK-Blue cells overexpressing human TLR7, gardiquimod 7.5 μM.
The mark [5] stands for this setting: read-out: TLR8 IC50, HEK-Blue cells overexpressing human TLR8, R848 15.9 μM.
Where [6] appears, read: read-out: TLR9 IC50, HEK-Blue cells overexpressing human TLR9, ODN2006 5 nM.

Like-named read-outs stand apart in the source and are kept apart here.

human TLR9, sequence (Q9NR96 26-1032): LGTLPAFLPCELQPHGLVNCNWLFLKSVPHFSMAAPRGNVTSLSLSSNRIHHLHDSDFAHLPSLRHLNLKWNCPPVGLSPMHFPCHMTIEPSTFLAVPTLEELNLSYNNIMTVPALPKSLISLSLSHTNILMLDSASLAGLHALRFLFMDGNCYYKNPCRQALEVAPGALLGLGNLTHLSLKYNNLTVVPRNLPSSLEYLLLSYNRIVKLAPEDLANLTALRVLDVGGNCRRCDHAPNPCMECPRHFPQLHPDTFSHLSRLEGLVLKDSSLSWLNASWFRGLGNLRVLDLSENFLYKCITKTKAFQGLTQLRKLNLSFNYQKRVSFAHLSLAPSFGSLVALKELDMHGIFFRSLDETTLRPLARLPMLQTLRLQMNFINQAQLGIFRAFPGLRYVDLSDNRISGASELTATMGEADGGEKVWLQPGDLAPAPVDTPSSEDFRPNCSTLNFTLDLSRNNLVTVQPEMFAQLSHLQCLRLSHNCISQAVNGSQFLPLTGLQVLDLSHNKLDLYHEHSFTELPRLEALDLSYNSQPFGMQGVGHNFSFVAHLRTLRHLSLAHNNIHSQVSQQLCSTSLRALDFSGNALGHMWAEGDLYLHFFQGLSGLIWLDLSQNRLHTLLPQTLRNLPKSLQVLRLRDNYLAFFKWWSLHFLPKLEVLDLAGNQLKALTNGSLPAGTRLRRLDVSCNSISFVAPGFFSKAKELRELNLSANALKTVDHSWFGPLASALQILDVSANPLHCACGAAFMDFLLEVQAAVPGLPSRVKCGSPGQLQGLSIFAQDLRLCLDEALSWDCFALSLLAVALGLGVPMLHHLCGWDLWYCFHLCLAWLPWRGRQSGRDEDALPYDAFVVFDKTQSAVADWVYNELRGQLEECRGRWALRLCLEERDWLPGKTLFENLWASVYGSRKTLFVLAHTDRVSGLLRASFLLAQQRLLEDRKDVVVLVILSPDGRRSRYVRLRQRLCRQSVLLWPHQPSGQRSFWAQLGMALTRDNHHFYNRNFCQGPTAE
human TLR7, sequence (Q9NYK1 27-1049): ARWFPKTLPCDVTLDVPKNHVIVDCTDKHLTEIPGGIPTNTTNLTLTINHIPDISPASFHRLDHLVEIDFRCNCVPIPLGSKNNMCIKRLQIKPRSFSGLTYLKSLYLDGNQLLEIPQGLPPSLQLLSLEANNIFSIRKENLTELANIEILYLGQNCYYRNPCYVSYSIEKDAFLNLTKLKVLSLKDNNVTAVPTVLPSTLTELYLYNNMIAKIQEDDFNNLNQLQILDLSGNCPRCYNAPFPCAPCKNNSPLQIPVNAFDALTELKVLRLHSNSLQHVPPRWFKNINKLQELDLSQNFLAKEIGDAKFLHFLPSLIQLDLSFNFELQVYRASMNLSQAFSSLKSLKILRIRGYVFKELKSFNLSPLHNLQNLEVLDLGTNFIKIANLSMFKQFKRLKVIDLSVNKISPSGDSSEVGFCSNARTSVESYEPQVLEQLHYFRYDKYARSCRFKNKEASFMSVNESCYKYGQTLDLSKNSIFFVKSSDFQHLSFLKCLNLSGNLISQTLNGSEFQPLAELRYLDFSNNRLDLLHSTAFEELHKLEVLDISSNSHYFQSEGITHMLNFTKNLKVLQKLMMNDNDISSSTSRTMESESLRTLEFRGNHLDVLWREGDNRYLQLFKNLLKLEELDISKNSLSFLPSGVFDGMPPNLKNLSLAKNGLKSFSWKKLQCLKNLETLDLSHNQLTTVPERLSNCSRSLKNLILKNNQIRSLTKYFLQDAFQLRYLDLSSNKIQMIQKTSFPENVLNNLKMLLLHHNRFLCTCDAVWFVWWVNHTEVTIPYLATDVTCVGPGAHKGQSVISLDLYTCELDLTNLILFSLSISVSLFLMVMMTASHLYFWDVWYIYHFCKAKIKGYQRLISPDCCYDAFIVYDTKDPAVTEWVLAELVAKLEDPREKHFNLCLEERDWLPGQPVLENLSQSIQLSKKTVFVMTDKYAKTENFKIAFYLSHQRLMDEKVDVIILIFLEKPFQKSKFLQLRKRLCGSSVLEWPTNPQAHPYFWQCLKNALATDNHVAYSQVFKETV
human TLR8, sequence (Q9NR97 27-1041): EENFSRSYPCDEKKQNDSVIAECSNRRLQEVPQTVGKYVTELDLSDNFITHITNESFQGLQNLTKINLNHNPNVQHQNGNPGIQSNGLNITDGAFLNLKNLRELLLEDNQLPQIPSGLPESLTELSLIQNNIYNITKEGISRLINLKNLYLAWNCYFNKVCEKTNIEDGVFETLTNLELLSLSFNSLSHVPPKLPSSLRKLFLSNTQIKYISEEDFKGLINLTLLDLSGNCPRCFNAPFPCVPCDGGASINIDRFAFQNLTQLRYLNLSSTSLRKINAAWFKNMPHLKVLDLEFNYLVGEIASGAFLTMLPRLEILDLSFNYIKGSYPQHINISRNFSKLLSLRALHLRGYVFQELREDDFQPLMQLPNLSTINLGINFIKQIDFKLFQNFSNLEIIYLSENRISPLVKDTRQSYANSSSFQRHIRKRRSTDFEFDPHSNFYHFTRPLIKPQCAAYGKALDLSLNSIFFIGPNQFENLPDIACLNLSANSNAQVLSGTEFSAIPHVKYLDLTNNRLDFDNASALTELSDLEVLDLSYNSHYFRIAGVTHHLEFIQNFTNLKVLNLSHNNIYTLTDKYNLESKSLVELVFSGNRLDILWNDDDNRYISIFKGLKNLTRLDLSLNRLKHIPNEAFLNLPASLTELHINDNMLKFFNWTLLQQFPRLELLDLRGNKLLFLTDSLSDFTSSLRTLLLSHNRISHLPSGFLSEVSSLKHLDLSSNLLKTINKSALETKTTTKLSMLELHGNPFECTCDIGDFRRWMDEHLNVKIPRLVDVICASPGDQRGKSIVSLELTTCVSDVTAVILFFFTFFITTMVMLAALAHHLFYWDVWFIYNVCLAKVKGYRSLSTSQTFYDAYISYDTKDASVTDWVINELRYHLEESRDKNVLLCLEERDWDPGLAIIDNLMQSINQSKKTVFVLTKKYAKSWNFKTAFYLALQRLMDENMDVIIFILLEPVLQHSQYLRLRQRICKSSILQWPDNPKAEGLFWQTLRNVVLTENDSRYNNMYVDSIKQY

For `FC(F)Cc1c(-c2ccnc(Cl)c2)[nH]c2ccc(C3CCNCC3)cc12` [Example 494, 2-(2-chloropyridin-4-yl)-3-(2,2-difluoroethyl)-5-(piperidin-4-yl)-1H-indole], the IC50 came to 36.5 nM in test [1] (setting [4]), 66.4 nM in test [2] (setting [5]) and 2040 nM in test [3] (setting [6]).
`COC1CN(C(=O)CN2CCC(c3ccc4[nH]c(-c5cc(C)nc(C)c5)c(C(C)C)c4c3)CC2)C1` [Example 226, 2-(4-(2-(2,6-dimethylpyridin-4-yl)-3-isopropyl-1H-indol-5-yl)piperidin-1-yl)-1-(3-methoxyazetidin-1-yl)ethan-1-one]: the values for the IC50 in test [1] (setting [4]), in test [2] (setting [5]) and in test [3] (setting [6]) were 5.4 nM, 12.4 nM and 759 nM, respectively.
As for `Cc1cc(-c2[nH]c3ccc(C4CCNCC4)cc3c2C(C)C)c(Cl)c(C)n1` [Example 50, 2-(3-chloro-2,6-dimethylpyridin-4-yl)-3-isopropyl-5-(piperidin-4-yl)-1H-indole], the IC50 stood at 3.2 nM in test [1] (setting [4]), 1.9 nM in test [2] (setting [5]) and 12700 nM in test [3] (setting [6]).
As for `CCN(C)CC(=O)N1CCC(c2ccc3[nH]c(-c4cc(C)nc(C)c4)c(C(C)C)c3c2)CC1` [Example 356, 1-(4-(2-(2,6-dimethylpyridin-4-yl)-3-isopropyl-1H-indol-5-yl)piperidin-1-yl)-2-(ethyl(methyl)amino)ethan-1-one], the IC50 came to 3.3 nM in test [1] (setting [4]), 13.9 nM in test [2] (setting [5]) and 657 nM in test [3] (setting [6]).
On to `Cc1nccc(-c2[nH]c3ccc(C4CCN(C(=O)CN(C)C)CC4)cc3c2C(C)C)c1F` [Example 587, 2-(dimethylamino)-1-(4-(2-(3-fluoro-2-methylpyridin-4-yl)-3-isopropyl-1H-indol-5-yl)piperidin-1-yl)ethan-1-one], for which the values for the IC50 in test [1] (setting [4]), in test [2] (setting [5]) and in test [3] (setting [6]) were 2.7 nM, 5.2 nM and 2910 nM, respectively.
Regarding `Cc1cc(-c2[nH]c3ccc(C4CCN(C(=O)CN5CC(C(F)(F)F)C[C@@H]5CO)CC4)cc3c2C(C)C)cc(C)n1` (stereo partly drawn) [Example 404, 1-(4-(2-(2,6-dimethylpyridin-4-yl)-3-isopropyl-1H-indol-5-yl)piperidin-1-yl)-2-((2R)-2-(hydroxymethyl)-4-(trifluoromethyl)pyrrolidin-1-yl)ethan-1-one], the concentration for half-maximal inhibition (IC50) in test [1] (setting [4]) came to 64.5 nM; in test [2] (setting [5]) it was 437 nM; in test [3] (setting [6]), 11300 nM.
Consider `Cc1cc(-c2[nH]c3ccc(C4CCN(C(=O)CNCC5CCCO5)CC4)cc3c2C(C)C)cc(C)n1` (stereo not drawn) [Example 373, 1-(4-(2-(2,6-dimethylpyridin-4-yl)-3-isopropyl-1H-indol-5-yl)piperidin-1-yl)-2-(((tetrahydrofuran-2-yl)methyl)amino)ethan-1-one], for which the IC50 in test [1] (setting [4]) amounted to 2.5 nM; in test [2] (setting [5]), 17.5 nM; in test [3] (setting [6]), 429 nM.
For `CCc1c(-c2ccnc(C)c2)[nH]c2ccc(C3CCN(C(=O)[C@@H]4CCCCN4)CC3)cc12` [Example 628, (S)-(4-(3-ethyl-2-(2-methylpyridin-4-yl)-1H-indol-5-yl)piperidin-1-yl)(piperidin-2-yl)methanone], the IC50 in test [1] (setting [4]) stood at 39.2 nM; in test [2] (TLR8 IC50, HEK-Blue cells overexpressing human TLR8, R848 15.9 μM), 18.3 nM; in test [3] (TLR9 IC50, HEK-Blue cells overexpressing human TLR9, ODN2006 5 nM), 363 nM.
Turning to `Cc1cc(-c2[nH]c3ccc(C4CCN(Cc5ncon5)CC4)cc3c2C(C)C)c(C)cn1` [Example 734, 3-((4-(2-(2,5-dimethylpyridin-4-yl)-3-isopropyl-1H-indol-5-yl)piperidin-1-yl)methyl)-1,2,4-oxadiazole], the 50% inhibitory concentration (IC50) worked out at 13.8 nM in test [1] (setting [4]), 6.8 nM in test [2] (setting [5]) and 8990 nM in test [3] (setting [6]).
On to `Cc1cc(-c2[nH]c3ccc(C4CCN(C(=O)C(=O)N5CCNCC5)CC4)cc3c2C(C)C)cc(C)n1` [Example 857, 1-(4-(2-(2,6-dimethylpyridin-4-yl)-3-isopropyl-1H-indol-5-yl)piperidin-1-yl)-2-(piperazin-1-yl)ethane-1,2-dione], for which the half-maximal inhibitory concentration (IC50) in test [1] (HEK-Blue cells, gardiquimod 7.5 μM) stood at 1.3 nM; in test [2] (read-out: TLR8 IC50, HEK-Blue cells, R848 15.9 μM), 13.6 nM; in test [3] (read-out: TLR9 IC50, HEK-Blue cells, ODN2006 5 nM) it was 441 nM.
